{"source": "patent US12570957B2", "about": "“Isolated naive pluripotent stem cells and methods of generating same” (Yeda Research and Development Co. Ltd., priority 2013, dated 2026)", "test_in_all_cases": "Pluripotency maintenance after supplementation of inhibitors or growth factors", "key": {"[1]": {"tested_on": "naive hESCs/hiPSCs", "type": "cell-based", "conditions": "naive human cells in WIS-NHSM", "description": "(§1) Shown are histograms depicting colony formation of pluripotent cell lines in various media. Cell populations were equally divided and plated on gelatin/vitronectin coated plates in the indicated growth medium in which these cell lines are normally maintained (mouse naive cells in a medium containing 2i/LIF, naive hESCs/iPSCs in a WIS-NHSM medium, mouse EpiSCs and human primed ESCS/iPSCs in a KSR/bFGF/TGFβmedium). 36 hours later the wells were supplemented with the indicated inhibitors or growth factors. After 14 days (2 passages), wells were analyzed for Oct4-GFP pluripotency marker expression by FACS, to determine the relative percentage of pluripotent colonies. Pluripotent cell frequency was normalized to an internal control, as indicated by “Growth medium” only on the far left column (For naive cells growth medium was WIS-NHSM, and for primed cells was conventional KSR/bFGF/TGFβcontaining medium as specified in methods). […]\n(§2) FIGS. 108A-108C—Signaling and functional characteristics of human naive pluripotency. […] After 14 days (2 passages), wells were analyzed by OCT4 immunostaining of direct detection of OCT4-GFP pluripotency reporter expression, to determine the relative percentage of undifferentiated pluripotent cells. […] After 20 days, colonies positive for OCT4 pluripotency markers were counted and normalized to colonies from cells electroporated with empty vector. […]"}, "[2]": {"tested_on": "primed hESCs/hiPSCs", "type": "cell-based", "conditions": "primed human cells", "description": "as §1, §2"}, "[3]": {"tested_on": "naive mESCs", "type": "cell-based, mouse", "conditions": "mESCs in 2i/LIF", "description": "as §1, §2"}}, "data": [{"smiles": "CC(C)(C)c1nc2c3ccc(F)cc3c3c(=O)[nH]ccc3c2[nH]1", "note": "[JAKi]", "values": [{"measurement": "response of pluripotent state", "setting": "[1]", "value": "differentiated"}, {"measurement": "response of pluripotent state", "setting": "[2]", "value": "resistant"}, {"measurement": "response of pluripotent state", "setting": "[3]", "value": "readily differentiate"}]}]}
